Reference: patent US6015805A, “17β-nitro-11β-arylisteroids and their derivatives having agonist or antagonist hormonal properties” (Research Triangle Research North Carolina, priority 1999, dated 2000)

Assays:
[1] = target: T1, human progesterone hormone receptor (hPR) (Homo sapiens, UniProt P06401); assay: Receptor binding (human), inhibition of [^3 H]-R5020 binding; conditions: cytosol from human T-47D cells; 0.4 nM [^3 H]-R5020; 4 hours at 4° C.
T1 construct: The receptor was obtained in cytosol from human T-47D breast cells; endogenous in cells; host or cells: T-47D human breast cells (cytosol)
T1 sequence (P06401 1-933): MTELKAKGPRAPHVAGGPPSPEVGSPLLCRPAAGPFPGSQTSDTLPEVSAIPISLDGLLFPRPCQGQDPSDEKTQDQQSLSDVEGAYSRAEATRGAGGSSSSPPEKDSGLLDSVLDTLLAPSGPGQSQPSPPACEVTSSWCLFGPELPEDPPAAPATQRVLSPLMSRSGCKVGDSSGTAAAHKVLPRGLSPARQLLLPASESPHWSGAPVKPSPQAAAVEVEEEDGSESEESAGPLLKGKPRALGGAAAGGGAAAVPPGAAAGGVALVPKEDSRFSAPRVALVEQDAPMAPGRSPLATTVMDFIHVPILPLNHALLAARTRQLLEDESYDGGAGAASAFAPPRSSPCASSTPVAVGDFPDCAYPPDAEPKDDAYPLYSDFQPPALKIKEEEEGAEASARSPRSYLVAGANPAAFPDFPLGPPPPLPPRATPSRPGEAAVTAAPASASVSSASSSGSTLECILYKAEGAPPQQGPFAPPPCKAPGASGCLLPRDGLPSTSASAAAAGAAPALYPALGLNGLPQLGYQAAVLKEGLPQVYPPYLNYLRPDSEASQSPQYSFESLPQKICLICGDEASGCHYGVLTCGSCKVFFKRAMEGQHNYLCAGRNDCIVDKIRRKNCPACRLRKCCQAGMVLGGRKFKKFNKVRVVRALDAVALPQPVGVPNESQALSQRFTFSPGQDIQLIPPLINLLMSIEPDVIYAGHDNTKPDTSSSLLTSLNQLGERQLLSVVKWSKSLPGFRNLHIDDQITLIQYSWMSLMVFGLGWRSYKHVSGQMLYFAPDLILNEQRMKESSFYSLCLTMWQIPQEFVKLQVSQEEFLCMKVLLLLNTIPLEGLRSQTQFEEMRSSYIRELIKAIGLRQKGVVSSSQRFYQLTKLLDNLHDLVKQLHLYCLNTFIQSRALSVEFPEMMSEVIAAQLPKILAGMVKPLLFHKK
Experimental: (§1) The affinity of the compounds for hormone receptors for progestins and glucocorticoids from rabbits was determined by standard procedures similar to those that have been described in C. E. Cook, et al., Human Reproduction, Volume 9, supplement 1, pp. 32-39 (1994). However, the source of the glucocorticoid receptor was the thymus of the estrogen-primed immature female rabbit. The affinity of the compounds for the human progesterone hormone receptor was determined by standard procedures similar to those that have been described in Horwitz, et al., Cell, 28: 633-42 (1982) and Mockus, et al., Endocrinology, 110: 1564-71 (1982). The receptor was obtained in cytosol from human T-47D breast cells and [^3 H]-R5020 was used as the radioligand. T47D cells (1 billion/mL) were homogenized in TEDG buffer (10 mM Tris, 1.5 mM EDTA, 1 mM dithiothreitol, 1 mM sodium molybdate, and 10% glycerol) using a Dounce pestle A, and the homogenate was centrifuged at 34,000×g for 1 hour. The supernatant was stored at -80° C. An aliquot of receptor preparation was combined with test compound, 0.4 nM [^3 H]-R5020, and TEDG buffer to a final volume of 150 ,μL and incubated for 4 hours at 4° C. in microtiter plates. At the end of incubation 40 μL 40% polyethylene glycol and 15 μL 1% human gamma globulin was added to the incubate and the contents of each well were harvested onto double thick B filter mats (Wallac LKB) using a TomTec harvester. A film of Meltilux scintillant wax was applied to the dried filter mats and the mats were counted in a scintillation counter to determine inhibition of [^3 H]-R5020 binding. Data are expressed as lC50 values, i.e., the concentration of compound that inhibits radioligand binding by 50%.

rabbits [2] = assay: Anti-McGinty assay (antiprogestational activity, test compound plus progesterone); type: in vivo, rabbit; parameters: key to McPhail Index, Anti-McGinty Assay, Standard / McPhail Index, Anti-McGinty Assay (Antagonist): McPhail scoring scale for progestational endometrial response; conditions: for McPhail Index, Anti-McGinty Assay (Antagonist): plus progesterone
Experimental: (§2) Progestational activity and antiprogestational activity were determined in rabbits by means of the McGinty test (test compound alone, procedure of McGinty et al., Endocrinology, 24: 829-832 (1939)) or anti-McGinty test (test compound plus progesterone, procedure of Tamara et al., Jpn. J. Fertil Steril 24: 48-81 (1979)). Results were scored according to McPhail (McPhail, J Physiol., 83: 146 (1934)). These are standard procedures known to those skilled in the art. The results of these assays are shown in Tables 4 (agonist activity) and 5 (antagonist activity). […] Physiol, 83: 146 (1934)).

rabbits [3] = assay: McGinty assay (progestational activity, test compound alone); type: in vivo, rabbit; parameters: key: McPhail scoring scale for progestational endometrial response
Experimental: as §2

progestin receptor (rPR) = target: T2, progestin receptor (rPR) (Oryctolagus cuniculus, UniProt P06186); assay: Receptor binding (rabbit), progestin receptor; conditions: for Relative Binding Affinity, rPR, Relative Affinity (Progesterone): relative to progesterone = 100, rabbit progestin receptor; for Ratio PR/GR: ratio of rPR to rGR relative affinities
T2 construct: hormone receptors for progestins and glucocorticoids from rabbits; from tissue; host or cells: rabbit
T2 sequence (P06186 1-930): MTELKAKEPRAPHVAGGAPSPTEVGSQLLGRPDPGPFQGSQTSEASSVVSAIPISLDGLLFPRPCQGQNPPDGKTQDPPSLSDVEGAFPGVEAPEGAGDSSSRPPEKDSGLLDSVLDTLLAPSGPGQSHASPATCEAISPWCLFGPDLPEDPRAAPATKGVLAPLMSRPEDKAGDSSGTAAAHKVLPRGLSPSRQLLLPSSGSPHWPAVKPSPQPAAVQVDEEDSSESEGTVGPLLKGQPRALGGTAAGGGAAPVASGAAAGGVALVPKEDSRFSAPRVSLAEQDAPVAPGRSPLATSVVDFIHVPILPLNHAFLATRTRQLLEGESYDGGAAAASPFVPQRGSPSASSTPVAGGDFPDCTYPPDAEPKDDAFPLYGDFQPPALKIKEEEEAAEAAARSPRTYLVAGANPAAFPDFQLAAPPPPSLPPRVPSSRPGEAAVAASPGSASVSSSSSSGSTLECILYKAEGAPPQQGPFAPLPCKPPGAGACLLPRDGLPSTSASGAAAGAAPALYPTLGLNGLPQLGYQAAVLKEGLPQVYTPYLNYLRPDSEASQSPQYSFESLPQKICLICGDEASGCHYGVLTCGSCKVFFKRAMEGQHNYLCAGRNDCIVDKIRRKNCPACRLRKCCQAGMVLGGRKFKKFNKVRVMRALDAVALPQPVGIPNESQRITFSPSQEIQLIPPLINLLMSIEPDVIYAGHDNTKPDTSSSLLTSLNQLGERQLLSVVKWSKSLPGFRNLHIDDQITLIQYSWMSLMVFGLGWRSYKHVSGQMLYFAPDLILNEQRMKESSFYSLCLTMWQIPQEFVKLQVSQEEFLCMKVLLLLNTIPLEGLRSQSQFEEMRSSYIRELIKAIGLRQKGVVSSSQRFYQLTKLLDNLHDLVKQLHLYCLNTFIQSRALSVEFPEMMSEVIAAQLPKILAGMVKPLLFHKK

[4] = test system: estrogen-primed immature female rabbits; assay: Anti-Clauberg assay (oral test compound with subcutaneous progesterone); type: in vivo, rabbit; conditions: given orally together with subcutaneous progesterone; McPhail Index
[5] = target: T3, glucocorticoid receptor (rGR) (Oryctolagus cuniculus, UniProt P59667); assay: Receptor binding (rabbit), glucocorticoid receptor; conditions: relative to dexamethasone = 100
T3 construct: the source of the glucocorticoid receptor was the thymus of the estrogen-primed immature female rabbit; from tissue; host or cells: thymus of the estrogen-primed immature female rabbit
T3 sequence (P59667 1-772): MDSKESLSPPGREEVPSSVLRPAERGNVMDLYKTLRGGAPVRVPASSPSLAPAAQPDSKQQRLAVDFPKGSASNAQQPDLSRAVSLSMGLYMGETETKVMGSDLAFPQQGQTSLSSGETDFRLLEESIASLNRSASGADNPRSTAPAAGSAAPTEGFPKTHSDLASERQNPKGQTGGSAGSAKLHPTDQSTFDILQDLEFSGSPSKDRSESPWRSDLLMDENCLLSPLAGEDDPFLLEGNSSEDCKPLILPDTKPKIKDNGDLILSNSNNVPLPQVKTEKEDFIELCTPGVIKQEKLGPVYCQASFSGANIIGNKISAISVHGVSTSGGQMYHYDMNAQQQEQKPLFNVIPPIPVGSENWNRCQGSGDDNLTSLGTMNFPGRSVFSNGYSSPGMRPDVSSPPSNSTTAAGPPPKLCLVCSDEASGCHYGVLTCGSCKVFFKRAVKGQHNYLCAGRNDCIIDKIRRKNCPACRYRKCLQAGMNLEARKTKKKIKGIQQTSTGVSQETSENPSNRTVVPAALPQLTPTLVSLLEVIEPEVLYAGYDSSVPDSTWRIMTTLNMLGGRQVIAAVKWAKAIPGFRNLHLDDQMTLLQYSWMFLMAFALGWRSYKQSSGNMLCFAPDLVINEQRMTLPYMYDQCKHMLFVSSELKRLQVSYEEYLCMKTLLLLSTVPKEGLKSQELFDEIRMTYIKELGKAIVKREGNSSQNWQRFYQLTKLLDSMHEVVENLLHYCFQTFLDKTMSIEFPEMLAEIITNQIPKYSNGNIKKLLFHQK
Experimental: as §1

| SMILES | Relative Binding Affinity, rPR, Relative Affinity (Progesterone) (progestin receptor (rPR)) | Ratio PR/GR (progestin receptor (rPR)) | Relative Binding Affinity, rGR, Relative Affinity (Dexamethasone) [5] | other results |
| --- | --- | --- | --- | --- |
| CN(C)c1ccc([C@H]2C[C@@]3(C)[C@@H](CC[C@@]34CCC=[N+]4[O-])[C@@H]3CCC4=CC(=O)CCC4=C32)cc1 [II 4-Me2 N H O H -- H, 11β-[4-(N,N-Dimethylamino)phenyl]-3',4'-dihydro-1'-oxo-spiro[estra-4,9-dien-17β,2'(2'H)-pyrrole]-3-one] |  |  |  | IC50 [1]: 18 nM; McPhail Index, Anti-McGinty Assay (Antagonist) (rabbits [2]; dose 0.3 micrograms): 2.0 ± 0.11; McPhail Index, Anti-McGinty Assay (Antagonist) (rabbits [2]; dose 3 micrograms): 1.83 ± 0.2; McPhail Index, Anti-McGinty Assay (Antagonist) (rabbits [2]; dose 30 micrograms): 0.23 ± 0.23; McPhail Index, McGinty Assay (Agonist) (rabbits [3]; dose 0.3 micrograms): 0 ± 0; McPhail Index, McGinty Assay (Agonist) (rabbits [3]; dose 3 micrograms): 0 ± 0; McPhail Index, McGinty Assay (Agonist) (rabbits [3]; dose 30 micrograms): 0 ± 0 |
| CC(=O)c1ccc(C2CC3(C)C(CCC34CCC(C)=[N+]4[O-])C3CCC4=CC(=O)CCC4=C23)cc1 (stereo not drawn) [II 4-CH3 CO H O H -- CH3, 11β-(4-Acetylphenyl)-3',4'-dihydro-5'-methyl-1'-oxo-spiro[estra-4,9-dien-17β,2'(2'H)-pyrrole]-3-one] | 21 |  |  |  |
| CC#C[C@]1([N+](=O)[O-])CC[C@H]2[C@@H]3CCC4=CC(=O)CCC4=C3[C@@H](c3ccc(N(C)C)cc3)C[C@@]21C [I 4-Me2 N H O H --CC--CH3, 11β-[4-(N,N-Dimethylamino)phenyl]-17β-nitro-17α-(1-propynyl)estra-4,9-dien-3-one] | 55 | 1.5 | 36 | antiprogestational activity in the anti-Clauberg assay [4]: potent antiprogestin |
| CC(=O)[C@H]1CC[C@H]2[C@@H]3CCC4=CC(=O)CC[C@]4(C)[C@H]3CC[C@]12C [Progesterone, reference compound] |  |  |  | McPhail Index, Anti-McGinty Assay, Standard (rabbits [2]; standard, dose not given): 2.45 ± 0.14; McPhail Index, McGinty Assay, Standard (rabbits [3]; standard, dose not given): 2.45 ± 0.14 |
| CSc1ccc([C@H]2C[C@@]3(C)[C@@H](CC[C@]3(C=CCO)[N+](=O)[O-])[C@@H]3CCC4=CC(=O)CCC4=C32)cc1 [I 4-MeS H O H CH=CHCH2 OH] | 32 |  |  |  |
| CSc1ccc([C@H]2C[C@@]3(C)[C@@H](CC[C@]3(CCCO)[N+](=O)[O-])[C@@H]3CCC4=CC(=O)CCC4=C32)cc1 [I 4-MeS H O H --(CH2)3 OH, 17α-(3-Hydroxypropyl)-11β-[4-(methylthio)phenyl]-17β-nitroestra-4,9-dien-3-one] | 61 | 20.3 | 3 |  |
| CN(C)c1ccc([C@H]2C[C@@]3(C)[C@@H](CC[C@]3(/C=C/CO)[N+](=O)[O-])[C@@H]3CCC4=CC(=O)CCC4=C32)cc1 [I 4-Me2 N H O H CH=CHCH2 OH, 11β-[4-(N,N-Dimethylamino)phenyl]-17α-[(E)-1-(3-hydroxy)propenyl]-17β-nitroestra-4,9-dien-3-one] | 56 | 3.5 | 16 |  |
| C[S+]([O-])c1ccc([C@H]2C[C@@]3(C)[C@@H](CC[C@]3(CCCO)[N+](=O)[O-])[C@@H]3CCC4=CC(=O)CCC4=C32)cc1 (stereo partly drawn) [I 4-MeS(O) H O H --(CH2)3 OH, 17α-(3-Hydroxypropyl)-11β-[4-(methylsulfinyl)phenyl]-17β-nitroestra-4,9-dien-3-one] | 23 | > 10 | < 2 |  |
